Reference: patent US6037332A, “Method of urinary bladder instillation” (Emory University, priority 1997, dated 2000)

Tests used:
[1] = tested on: MNU induced bladder tumors; settings: intravesical, Fisher 344 rats; Graham et al. 1995; cited from earlier work
[2] = tested on: human urinary bladder carcinoma cells; settings: Sorimachi et al. 1992; cited from earlier work
[3] = tested on: MNU-induced rat bladder transitional cell carcinoma
Description: (1972) and modified by Steinberg, et al. (1990). Animals: Four to five week old female Fisher 344 rats (avg. Wt. 200 g) were used in all cohorts on this trial. All animals received 5 mg/200 g body weight intraperitoneal gentamicin (50 mg/ml) as antibacterial prophylaxis one hour prior to each bladder catheterization. MNU dose and schedule: 100 mg of MNU (Sigma, St. Louis, Mo.) were dissolved in 10 ml of sodium acetate (CH3 COONa), pH of a solution=6.5. Five mg/200 g body weight of this solution (0.5 ml) was instilled intravesically via a 22-gauge teflon angiocatheter under a continuous flow hood within 45 minutes of preparing the MNU solution every other week for a total of 4 doses (8 weeks). […] (Mol. Wt. 8000 Da.-Sigma, St. Louis, Mo.) Beginning at week four, 20 of the animals received intravesical dextran sulfate, 10 mg/200 g body weight twice a week for four weeks. The remaining 20 animals received saline on the same schedule. Tissue Preparations: The urinary bladder were excised, filled and fixed with 10% neutral buffered formalin, and then embedded in paraffin. The bladders were sectioned every 2 mm and 5-micron sections were stained with hematoxylin and eosin.

[4] = tested on: epidermal growth factor (EGF) binding to T24 cells; assay: 125I-EGF growth factor receptor binding to T24 cells; set-up: species or system human
Description: Method: Growth factor receptor binding studies were performed using T24 high grade human bladder tumor cell line. Cells were incubated with […] ^125 I-Insulin like growth factor-1 (^125 I-IGF-1) or ^125 I-epidermal growth factor (^125 I-EGF) and varying concentration of unlabeled growth factor or dextran sulfate in 1 ml of binding assay buffer. After incubation at 4° C. for 10 to 12 hours, the assay buffer was removed and the cultures washed three times. The cells and receptor-bound growth factors were then solubilized in 1 ml of […] before being quantitated in a gamma radiation counter.

[5] = tested on: T24 cells; assay: Proliferation of human transitional cell carcinoma cultures (crystal violet, A540 ratio day one/day eight); format: cell-based; settings: 10 mM dextran sulfate; day eight; p<0.0001
Description: Method: Cultures of two urothelial carcinoma cell lines, HT 1376 and T24 were obtained from the American Type Culture Collection and propagated in Dulbecco's Modified Eagles Medium (DMEM) supplemented with 10% fetal bovine serum (FBS). The HT1376 and T24 cells were plated into 96 well polystyrene trays in 0.1 ml of medium at densities of 5000 and 2500 cells/wells respectively. After overnight incubation, medium was replaced with DMEM containing various FBS and dextran sulfate concentrations. Each FBS and dextran sulfate concentration was tested in quadruplicated wells. On day eight the cells were fixed with glutaraldehyde, stained with 0.1% crystal violet and absorbance at 540 nm was quantitated in a (Bio-Rad) microplate spectrophotometer.
Results: The ratio of A540 values in day one and day eight was used to indicate cell proliferation.

Molecule | in-vivo action on MNU induced bladder tumors [1] | inhibitory effect on growth of human urinary bladder carcinoma cells in culture [2] | prevention of development of transitional cell carcinoma of the bladder ([3]; intravesical, 10 mg/200 g body weight twice a week for four weeks, from week four) | side effects or histopathologic changes in urinary bladders ([3]; rat, in vivo) | EGF binding ([4]; dextran sulfate 10 mM) | EGF binding ([4]; dextran sulfate 1-2 mM) | T24 cell proliferation inhibition [5]
Cc1ccc(C(=O)Nc2ccc(S(=O)(=O)O)c3cc(S(=O)(=O)O)cc(S(=O)(=O)O)c23)cc1NC(=O)c1cccc(NC(=O)Nc2cccc(C(=O)Nc3cc(C(=O)Nc4ccc(S(=O)(=O)O)c5cc(S(=O)(=O)O)cc(S(=O)(=O)O)c45)ccc3C)c2)c1 [Suramin] | intravesical inhibition of MNU induced bladder tumors | – | – | – | – | – | –
dextran sulfate | – | failed to observe an inhibitory effect | effectively prevents the development of transitional cell carcinoma of the bladder | did not cause any significant side effects or histopathologic changes | 115 % of control | 80 % of control binding | completely inhibited
